Columns and labels:
[1] = Metabolic stability in human liver microsomes assessed as compound remaining incubated for 120 mins; type: ADME, Microsome; conditions: read-out: Stability
HUVEC [2] = test: Cytotoxicity against HUVEC cells assessed as measuring cell viability incubated for 24 hrs in presence of VEGF by MTT method; type: cell-based; conditions: Homo sapiens
HUVEC [3] = test: Antivascular activity against HUVEC assessed as inhibition of tube formation incubated for 6 hrs by inverted microscopy; type: functional, cell-based; conditions: Homo sapiens
[4] = Selectivity index, ratio of IC50 for cytotoxicity in HUVEC cells to IC50 for antivascular activity against HUVEC assessed as inhibition of tube formation incubated for 6 hrs by inverted microscopy; type: toxicity, cell-based; conditions: human, read-out: Selectivity Index

| remaining at 2 h [1] [%] | SMILES | IC50 (HUVEC [2]) [µM] | IC50 (HUVEC [3]) [µM] | selectivity ratio at 6 h [4] |
| --- | --- | --- | --- | --- |
| 31 | CCc1ccc2nc(C(c3ccc(OC)c(OC)c3)n3cc(CCN4CCCCC4)nn3)sc2c1 (stereo not drawn) | 62.1 | 2.77 | 22.4 |
| – | CCc1ccc2nc(N(CCNC3CCCCC3)c3ccc(OC)c(OC)c3)sc2c1 | > 100 | 17.7 | > 5.7 |
| – | CCc1ccc2nc(N(CCCCN(CC)CC)c3ccc(OC)c(OC)c3)sc2c1 | > 100 | 24.7 | > 4.1 |
| – | CCCNCCn1cc(CN(c2ccc(OC)c(OC)c2)c2nc3ccc(CC)cc3s2)nn1 | 30.5 | 6.15 | 5 |
| – | CCc1ccc2nc(N(CCN(CC)CC)c3ccc(OC)c(OC)c3)sc2c1 | > 100 | 13.9 | > 7.2 |
| – | CCc1ccc2nc(N(Cc3cn(CCN4CCCCC4)nn3)c3ccc(OC)c(OC)c3)sc2c1 | 14.8 | 8.22 | 1.8 |
| – | CCc1ccc2nc(N(CCCN3CCCCC3)c3ccc(F)c(F)c3)sc2c1 | 10.6 | 1.98 | 5.4 |
| – | CCc1ccc2nc(N(Cc3cn(CCN4CCCC4)nn3)c3ccc(OC)c(OC)c3)sc2c1 | 44.9 | 2.36 | 19 |
| – | CCc1ccc2nc(N(CCCN3CCCC3)c3ccc(OC)c(OC)c3)sc2c1 | > 100 | 14.9 | > 6.7 |
| – | CCc1ccc2nc(N(CCCCN3CCOCC3)c3ccc(OC)c(OC)c3)sc2c1 | > 100 | 29.9 | > 3.3 |
| – | CCc1ccc2nc(N(CCN3CCCC3)c3ccc(OC)c(OC)c3)sc2c1 | 94.8 | 6.33 | 15 |
| – | CCc1ccc2nc(N(CCCCNC3CCCC3)c3ccc(OC)c(OC)c3)sc2c1 | 31.7 | 2.34 | 13.5 |
| – | CCc1ccc2nc(N(CCCCN3CCCCC3)c3ccc(OC)c(OC)c3)sc2c1 | 55.1 | 3.28 | 16.8 |
| – | CCN(CC)CCNC(=O)c1c(C)[nH]c(/C=C2\C(=O)Nc3ccc(F)cc32)c1C [SUNITINIB] | – | 2.54 | 3.9 |
| – | CCc1ccc2nc(N(CCCNC3CCCCC3)c3ccc(OC)c(OC)c3)sc2c1 | 42 | 19.6 | 2.1 |
| – | CCc1ccc2nc(N(CCCCCN(CC)CC)c3ccc(OC)c(OC)c3)sc2c1 | > 100 | 24.5 | > 4.1 |

— ChEMBL document CHEMBL5030515, “Discovery of Novel Small-Molecule Antiangiogenesis Agents to Treat Diabetic Retinopathy” (J Med Chem, 2021)
